Columns and labels:
barley [1] = experiment: Test C preemergence/postemergence greenhouse plant response rating 0 to 100; assay type: in vivo, Hordeum vulgare; settings: PREEMERGENCE; for Plant response rating Barley Igri: 0 to 100 scale
From the text: (§1) The compounds evaluated in this test were formulated in a non-phytoxic solvent and applied to the soil surface before plant seedlings emerged (preemergence application), to water that covered the soil surface (flood application), and to plants that were in the one-to-four leaf stage (postemergence application). A sandy loam soil was used for the preemergence and postemergence tests, while a silt loam soil was used in the flood test. Water depth was approximately 2.5 cm for the flood test and was maintained at this level for the duration of the test. Plant species in the preemergence and postemergence tests consisted of barley (Hordeum vulgare), bedstraw (Galium aparine), blackgrass (Alopecurus myosuroides), chickweed (Stellaria media), corn (Zea mays), cotton (Gossypium hirsutum), crabgrass (Digitaria sanguinalis), downy brome (Bromus tectorum), giant foxtail (Setaria faberii), lambsquarters (Chenopodium album), morningglory (Ipomoea hederacea), pigweed ([…]), rape (Brassica napus), ryegrass (Lolium multiflorum), sorghum (Sorghum bicolor), soybean (Glycine max), speedwell (Veronica persica), sugar beet (Beta vulgaris), velvetleaf (Abutilon theophrasti), wheat (Triticum aestivum), wild buckwheat (Polygonum convolvulus), and wild oat (Avena fatua). All plant species were planted one day before application of the compound for the preemergence portion-of this test. Plantings of these species were adjusted to produce plants of appropriate size for the post-emergence portion of the test. […] All plant species were grown using normal greenhouse practices. Visual evaluations of injury expressed on treated plants, when compared to untreated controls, were recorded approximately fourteen to twenty one days after application of the test compound. […] A dash (-) response means no test result.

ryegrass = experiment: as above; assay type: in vivo, Lolium multiflorum; settings: PREEMERGENCE; for Plant response rating Ryegrass: 0 to 100 scale
From the text: as §1

cotton = experiment: Test B preemergence/postemergence greenhouse plant response rating 0 to 10; assay type: in vivo, Gossypium hirsutum; settings: 0 to 10 scale
How it was run: (§2)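 Planted seeds are treated preemergence with compound dissolved in a non-phytotoxic solvent, while postemergence applications go onto plants of two to eighteen cm. Plants stay in the greenhouse twelve to sixteen days and are then rated visually relative to controls.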

sorghum [2] = experiment: as above; assay type: in vivo, Sorghum bicolor; settings: 0 to 10 scale
How it was run: as §2

rice = experiment: as above; assay type: in vivo, Oryza sativa; settings: 0 to 10 scale
How it was run: as §2

blackgrass [3] = experiment: as above; assay type: in vivo, Alopecurus myosuroides; settings: 0 to 10 scale
How it was run: as §2

bedstraw [4] = experiment: Test C preemergence/postemergence greenhouse plant response rating 0 to 100; assay type: in vivo, Galium aparine; settings: PREEMERGENCE; for Plant response rating, Bedstraw: 0 to 100 scale
From the text: as §1

wild buckwheat = experiment: as above; assay type: in vivo, Polygonum convolvulus; settings: PREEMERGENCE
From the text: as §1

sugar beet = experiment: as above; assay type: in vivo, Beta vulgaris; settings: PREEMERGENCE
From the text: as §1

blackgrass [5] = experiment: as above; assay type: in vivo, Alopecurus myosuroides; settings: PREEMERGENCE; for Plant response rating, Blackgrass: 0 to 100 scale
From the text: as §1

sorghum [6] = experiment: as above; assay type: in vivo, Sorghum bicolor; settings: PREEMERGENCE
From the text: as §1

pigweed = experiment: as above; assay type: in vivo, Amaranthusretroflexus; settings: PREEMERGENCE; for Plant response rating Pigweed: 0 to 100 scale
From the text: as §1

bedstraw [7] = experiment: Test B preemergence/postemergence greenhouse plant response rating 0 to 10; assay type: in vivo, Galium aparine; settings: 0 to 10 scale
How it was run: as §2

cheatgrass = experiment: as above; assay type: in vivo, Bromus secalinus; settings: 0 to 10 scale
How it was run: as §2

wheat = experiment: as above; assay type: in vivo, Triticum aestivum; settings: 0 to 10 scale
How it was run: as §2

barley [8] = experiment: as above; assay type: in vivo, Hordeum vulgare; settings: 0 to 10 scale
How it was run: as §2

rape = experiment: as above; assay type: in vivo, Brassica napus; settings: 0 to 10 scale
How it was run: as §2

CCCN1C(=O)COc2cc(F)c(-c3nn4c(c3Br)CCCC4)cc21 [Compound 63]
9: Plant response rating, Cotton (cotton; POSTEMERGENCE, Rate 10 g/ha) | Plant response rating, Rape (rape; POSTEMERGENCE, Rate 10 g/ha) | Plant response rating, Rape (rape; POSTEMERGENCE, Rate 50 g/ha)
6: Plant response rating, Bedstraw (bedstraw [7]; POSTEMERGENCE, Rate 10 g/ha) | Plant response rating, Rape (rape; PREEMERGENCE, Rate 50 g/ha)
20: Plant response rating, Sorghum (sorghum [6]; 250 g/ha, 0 to 100 scale)
40: Plant response rating Barley Igri (barley [1]; 250 g/ha) | Plant response rating Ryegrass (ryegrass; 62 g/ha)
100: Plant response rating, Bedstraw (bedstraw [4]; 62 g/ha) | Plant response rating, Bedstraw (bedstraw [4]; 250 g/ha) | Plant response rating, Wild buckwheat (wild buckwheat; 250 g/ha, 0 to 100 scale) | Plant response rating, Sugar beet (sugar beet; 250 g/ha, 0 to 100 scale) | Plant response rating (0 to 100), Sugar beet (sugar beet; Rate 16 g/ha) | Plant response rating Pigweed (pigweed; 62 g/ha) | Plant response rating Pigweed (pigweed; 250 g/ha) | Plant response rating (0 to 100), Pigweed (pigweed; Rate 16 g/ha)
30: Plant response rating (0 to 100), Blackgrass (blackgrass [5]; Rate 16 g/ha)
50: Plant response rating (0 to 100), Wild buckwheat (wild buckwheat; Rate 16 g/ha) | Plant response rating, Blackgrass (blackgrass [5]; 62 g/ha)
4: Plant response rating, Blackgrass (blackgrass [3]; POSTEMERGENCE, Rate 10 g/ha) | Plant response rating, Blackgrass (blackgrass [3]; POSTEMERGENCE, Rate 50 g/ha) | Plant response rating, Bedstraw (bedstraw [7]; PREEMERGENCE, Rate 10 g/ha) | Plant response rating, Cheatgrass (cheatgrass; POSTEMERGENCE, Rate 10 g/ha) | Plant response rating, Cheatgrass (cheatgrass; POSTEMERGENCE, Rate 50 g/ha) | Plant response rating, Wheat (wheat; POSTEMERGENCE, Rate 10 g/ha) | Plant response rating, Barley (barley [8]; POSTEMERGENCE, Rate 10 g/ha)
90: Plant response rating, Blackgrass (blackgrass [5]; 250 g/ha)
80: Plant response rating Ryegrass (ryegrass; 250 g/ha)
3: Plant response rating, Sorghum (sorghum [2]; POSTEMERGENCE, Rate 10 g/ha) | Plant response rating, Rice (rice; POSTEMERGENCE, Rate 10 g/ha) | Plant response rating, Blackgrass (blackgrass [3]; PREEMERGENCE, Rate 50 g/ha)
8: Plant response rating, Bedstraw (bedstraw [7]; POSTEMERGENCE, Rate 50 g/ha)
10: Plant response rating Barley Igri (barley [1]; 62 g/ha) | Plant response rating, Cotton (cotton; POSTEMERGENCE, Rate 50 g/ha) | Plant response rating (0 to 100), Bedstraw (bedstraw [4]; Rate 16 g/ha) | Plant response rating (0 to 100), Sugar beet (sugar beet; Rate 4 g/ha) | Plant response rating (0 to 100), Blackgrass (blackgrass [5]; Rate 4 g/ha) | Plant response rating, Bedstraw (bedstraw [7]; PREEMERGENCE, Rate 50 g/ha)
5: Plant response rating, Sorghum (sorghum [2]; POSTEMERGENCE, Rate 50 g/ha) | Plant response rating, Rice (rice; POSTEMERGENCE, Rate 50 g/ha) | Plant response rating, Wheat (wheat; POSTEMERGENCE, Rate 50 g/ha) | Plant response rating, Barley (barley [8]; POSTEMERGENCE, Rate 50 g/ha)
0: Plant response rating (0 to 100), Barley Igri (barley [1]; Rate 4 g/ha) | Plant response rating (0 to 100), Barley Igri (barley [1]; Rate 16 g/ha) | Plant response rating (0 to 100), Ryegrass (ryegrass; Rate 4 g/ha) | Plant response rating (0 to 100), Ryegrass (ryegrass; Rate 16 g/ha) | Plant response rating, Cotton (cotton; PREEMERGENCE, Rate 10 g/ha) | Plant response rating, Sorghum (sorghum [2]; PREEMERGENCE, Rate 50 g/ha) | Plant response rating, Rice (rice; PREEMERGENCE, Rate 50 g/ha) | Plant response rating, Blackgrass (blackgrass [3]; PREEMERGENCE, Rate 10 g/ha) | Plant response rating (0 to 100), Bedstraw (bedstraw [4]; Rate 4 g/ha) | Plant response rating (0 to 100), Wild buckwheat (wild buckwheat; Rate 4 g/ha) | Plant response rating (0 to 100), Sorghum (sorghum [6]; Rate 4 g/ha) | Plant response rating (0 to 100), Sorghum (sorghum [6]; Rate 16 g/ha) | Plant response rating (0 to 100), Pigweed (pigweed; Rate 4 g/ha) | Plant response rating, Barley (barley [8]; PREEMERGENCE, Rate 10 g/ha) | Plant response rating, Barley (barley [8]; PREEMERGENCE, Rate 50 g/ha)
2: Plant response rating, Cotton (cotton; PREEMERGENCE, Rate 50 g/ha) | Plant response rating, Cheatgrass (cheatgrass; PREEMERGENCE, Rate 10 g/ha) | Plant response rating, Cheatgrass (cheatgrass; PREEMERGENCE, Rate 50 g/ha) | Plant response rating, Wheat (wheat; PREEMERGENCE, Rate 50 g/ha)
